Measurements published in patent US20240246913A1, “2-CARBOXYL-INDOLE INHIBITORS OF METALLO-BETA-LACTAMASES” (Oxford University Innovation Limited, priority 2021, published 2024).

What was measured:
VIM-1 = VIM-1 (Pseudomonas aeruginosa, UniProt A0A0F7KYQ8); assay: MBL inhibition, FC-5 fluorescence assay, VIM-1; assay type: biochemical; conditions: FC-5 cephalosporin substrate, ranges of obtained pIC50, read-out: pIC50 VIM-1 (converted)
How it was run: (§1)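 Turnover of the fluorogenic cephalosporin FC-5 by each MBL, followed as initial rate of fluorescence increase (ex 380/em 460 nm). Dose-response curves fitted with a variable-slope normalized-response model; 4 intra-plate replicates per concentration.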

[1] = Metabolic stability in mouse hepatocytes; assay type: in vitro ADME; conditions: cryopreserved mouse hepatocytes, 1 μM compound, 37° C., up to 90 min, read-out: Metabolic stability in hepatocytes, in vitro t1/2, Mouse
How it was run: (§2)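 Cryopreserved hepatocytes at 1.0×10^6 cells/ml in Williams medium E were incubated with 1 μM compound (final) at 37° C. Samples at 0, 5, 15, 30, 60 and 90 min were quenched with MeCN containing warfarin internal standard and analysed by LC-MS/MS.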

IMP-1 = IMP-1 (Serratia marcescens, UniProt P52699); assay: MBL inhibition, FC-5 fluorescence assay, IMP-1; assay type: biochemical; conditions: FC-5 cephalosporin substrate, fluorescence; ranges of obtained pIC50; read-out: pIC50 IMP-1 (converted)
Chain of IMP-1 (P52699 19-246, looked up, species assumed): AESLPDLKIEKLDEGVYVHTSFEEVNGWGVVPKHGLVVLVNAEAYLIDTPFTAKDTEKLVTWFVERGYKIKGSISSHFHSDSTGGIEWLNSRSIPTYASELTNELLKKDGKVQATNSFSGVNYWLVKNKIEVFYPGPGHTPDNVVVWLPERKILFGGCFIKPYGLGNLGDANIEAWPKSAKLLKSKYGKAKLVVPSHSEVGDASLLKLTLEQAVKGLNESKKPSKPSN
How it was run: as §1

NDM-1 = NDM-1 (Klebsiella pneumoniae, UniProt C7C422); assay: MBL inhibition, FC-5 fluorescence assay, NDM-1; assay type: biochemical; conditions: FC-5 cephalosporin substrate, fluorescence; ranges of obtained pIC50; read-out: pIC50 NDM-1 (converted)
Chain of NDM-1 (C7C422 29-270, looked up, species assumed): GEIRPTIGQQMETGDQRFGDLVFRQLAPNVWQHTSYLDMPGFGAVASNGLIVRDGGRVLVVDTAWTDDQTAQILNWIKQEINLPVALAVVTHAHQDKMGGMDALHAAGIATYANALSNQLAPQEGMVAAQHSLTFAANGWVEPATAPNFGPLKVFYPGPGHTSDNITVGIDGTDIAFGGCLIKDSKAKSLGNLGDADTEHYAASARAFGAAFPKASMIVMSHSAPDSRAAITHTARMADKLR
How it was run: as §1

[2] = Metabolic stability in human hepatocytes; assay type: in vitro ADME; conditions: cryopreserved human hepatocytes, 1 μM compound, 37° C., up to 90 min, read-out: Metabolic stability in hepatocytes, in vitro t1/2, Human
How it was run: as §2

[3] = Plasma protein binding, equilibrium dialysis, mouse plasma; assay type: in vitro ADME; conditions: pH 7.4, equilibrium dialysis (RED) 4 hours at 37° C., read-out: Plasma protein binding, fu, Mouse
How it was run: (§3)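 Compound at 10 μM in plasma dialysed against 67 mM phosphate buffer pH 7.4 for 4 h at 37° C. in RED device; unbound fraction from buffer and plasma levels by LC-MS/MS. Plasma stability checked in parallel over 4 h at 37° C. versus frozen control.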

VIM-2 = VIM-2 (Escherichia coli, UniProt Q5U7L7); assay: MBL inhibition, FC-5 fluorescence assay, VIM-2; assay type: biochemical; conditions: FC-5 cephalosporin substrate, ranges of obtained pIC50, read-out: pIC50 VIM-2 (converted)
How it was run: as §1

bacteria = assay: Thigh and/or septicaemia mouse model of infection, with meropenem; assay type: in vivo; conditions: NMRI mice; single dose with meropenem subcutaneous 1 h after inoculation; endpoint 3 h after treatment initiation
Description: Female NMRI mice (5-6 weeks old, 26-30 gram, n=5) were rendered neutropenic via intraperitoneal injection of two doses of cyclophosphamide on day 4 and day 1 before infection. The animals were infected via intramuscular injection of an inoculum containing 10^6 CFU/mL of bacteria in the left thigh. The animals were treated with a single dose of meropenem subcutaneous +/− inhibitor 1 h after inoculation, and animals were either euthanised at the start of treatment or at the study endpoint at 3 h after treatment initiation. Clinical scores were monitored at 1 and 4 hours post inoculation and were in all cases mild or moderate. Thighs were aseptically removed from the animals, homogenised, diluted, and plated for incubation. Bacterial counting was performed after 18-22 h of incubation at 35° C. in ambient air.
Immunocompetent female NMRI mice mice (5-6 weeks old, 26-30 gram, n=5) were inoculated intraperitoneally with 0.5 ml inoculum containing 5×10^5 CFU suspended in 5% porcine mucin.
The animals were treated with a single dose of meropenem subcutaneous+/−metallo-b-lactamase inhibitor intravenous 1 h after inoculation. Animals were either euthanised at the start of treatment or at the study endpoint at 3 h after treatment initiation. Clinical scores were monitored at 1 and 4 hours post inoculation and were in all cases mild or moderate. Mice were anaesthetised anesthetized with a buprenorphine/tiletamine/zolazepam cocktail and bled, then euthanized and the peritoneum flushed with 2 ml sterile 0.9% NaCl and collected. The blood and/or peritoneal flush were serially diluted and plated for incubation. Bacterial counting was performed after 18-22 h of incubation at 35° C. in ambient air.

[4] = Plasma protein binding, equilibrium dialysis, human plasma; assay type: in vitro ADME; conditions: pH 7.4, equilibrium dialysis (RED) 4 hours at 37° C., read-out: Plasma protein binding, fu, Human
How it was run: as §3

Escherichia coli NDM-1 = assay: Antibiotic susceptibility testing (MIC), EC NDM-1; assay type: cell-based; conditions: agar or broth dilution (CLSI/EUCAST)
Description: (§4) Antibiotic susceptibility testing was performed using the agar or broth dilution method, in line with the Clinical and Laboratory Standards Institute (CLSI) and European Committee on Antimicrobial Susceptibility Testing (EUCAST) requirements.

Escherichia coli NDM-7 = assay: Antibiotic susceptibility testing (MIC), EC NDM-7; assay type: cell-based; conditions: agar or broth dilution (CLSI/EUCAST)
Description: as §4

[5] = system: Acinetobacter baumannii NDM-1; assay: Antibiotic susceptibility testing (MIC), AB NDM-1; assay type: cell-based; conditions: agar or broth dilution (CLSI/EUCAST)
Description: as §4

SMILES	IC50 (VIM-1)	half-life at 1 μM [1]	IC50 (IMP-1)	IC50 (NDM-1)	half-life at 1 μM [2]	fraction unbound at 4 h, 10 μM [3]	IC50 (VIM-2)	Dose required to reduce minim 1 log fold CFU in a thigh and or a sepsis animal model (bacteria)	fraction unbound at 4 h, 10 μM [4]	MIC values EC NDM-1 (Escherichia coli NDM-1)	MIC values EC NDM-7 (Escherichia coli NDM-7)	MIC values AB NDM-1 [5]
CC(NC(=O)c1ccc(CN)cc1)c1cccc2c(-c3ccc(CN4CCOCC4)nc3)c(C(=O)O)[nH]c12 (stereo not shown) [IC-11, 7-(1-((4-(Aminomethyl)benzoyl)amino)ethyl)-3-(6-(morpholin-4-ylmethyl)pyridin-3-yl)-1H-indole-2-carboxylic acid]	> 10 nM	> 400 min	> 10 nM	< 0.1 nM	> 400 min	0.005 to 0.05	1 to 10 nM	B (B = 30-10 mg/kg)	> 0.25			
C[C@@H](c1cccc2c(-c3ccc(NS(C)(=O)=O)c(F)c3)c(C(=O)O)[nH]c12)N1C[C@]2(C[C@@H](CN)C2)OC1=O [IC-14, 7-((S)-1-((2S,4r)-2-(Aminomethyl)-6-oxo-5-oxa-7-azaspiro[3.4]octan-7-yl)ethyl)-3-(3-fluoro-4-(methylsulfonamido)phenyl)-1H-indole-2-carboxylic acid]	0.1 to 1 nM	150 to 400 min	> 10 nM	< 0.1 nM	> 400 min	0.05 to 0.25	0.1 to 1 nM	C (C = 5-10 mg/kg)	0.05 to 0.25	A (A = MIC values ≤ 1)	A (A = MIC values ≤ 1)	B (B MIC values 2 ÷ 8)
COc1cc(-c2c(C(=O)O)[nH]c3c([C@H](C)N4C[C@]5(C[C@@H](CN)C5)OC4=O)cccc23)ccn1 [IC-17, 7-((1S)-1-(2-(aminomethyl)-6-oxo-5-oxa-7-azaspiro[3.4]octan-7-yl)ethyl)-3-(2-methoxypyridin-4-yl)-1H-indole-2-carboxylic acid]	1 to 10 nM	150 to 400 min	> 10 nM	0.1 to 1 nM	> 400 min	0.005 to 0.05	< 0.1 nM	B (B = 30-10 mg/kg)	0.05 to 0.25	A (A = MIC values ≤ 1)	A (A = MIC values ≤ 1)	B (B MIC values 2 ÷ 8)
C[C@@H](c1cccc2c(-c3ccnc(O)c3)c(C(=O)O)[nH]c12)N1C[C@]2(C[C@@H](CN)C2)OC1=O [IC-18, 7-((S)-1-((2S,4r)-2-(aminomethyl)-6-oxo-5-oxa-7-azaspiro[3.4]octan-7-yl)ethyl)-3-(2-hydroxypyridin-4-yl)-1H-indole-2-carboxylic acid]	1 to 10 nM	> 400 min	> 10 nM	0.1 to 1 nM	< 150 min	0.005 to 0.05	0.1 to 1 nM	C (C = 5-10 mg/kg)	> 0.25	A (A = MIC values ≤ 1)	A (A = MIC values ≤ 1)	B (B MIC values 2 ÷ 8)
C[C@@H](c1cccc2c(-c3cncc(O)c3)c(C(=O)O)[nH]c12)N1C[C@]2(C[C@@H](CN)C2)OC1=O [IC-23, 7-((S)-1-((2S,4r)-2-(aminomethyl)-6-oxo-5-oxa-7-azaspiro[3.4]octan-7-yl)ethyl)-3-(5-hydroxypyridin-3-yl)-1H-indole-2-carboxylic acid]	1 to 10 nM		> 10 nM	1 to 10 nM		0.005 to 0.05	0.1 to 1 nM	C (C = 5-10 mg/kg)	0.05 to 0.25	A (A = MIC values ≤ 1)	A (A = MIC values ≤ 1)	B (B MIC values 2 ÷ 8)
C[C@@H](c1cccc2c(-c3cc[nH]c(=O)c3)c(C(=O)O)[nH]c12)n1cc(CN2CC(N)C2)oc1=O [IC-54, 7-[(1S)-1-{5-[(3-Aminoazetidin-1-yl)methyl]-2-oxo-2,3-dihydro-1,3-oxazol-3-yl}ethyl]-3-(2-oxo-1,2-dihydropyridin-4-yl)-1H-indole-2-carboxylic acid]	> 10 nM		> 10 nM	0.1 to 1 nM		> 0.25	1 to 10 nM	C (C = 5-10 mg/kg)	> 0.25	A (A = MIC values ≤ 1)	A (A = MIC values ≤ 1)	B (B MIC values 2 ÷ 8)
C[C@H](NC(=O)c1ccc(CN)cc1)c1cccc2c(-c3ccc(CN4CCOCC4)nc3)c(C(=O)O)[nH]c12 [IC-59, 7-((1S)-1-((4-(aminomethyl)benzoyl)amino)ethyl)-3-(6-(morpholin-4-ylmethyl)pyridin-3-yl)-1H-indole-2-carboxylic acid]	> 10 nM		> 10 nM	< 0.1 nM			< 0.1 nM	B (B = 30-10 mg/kg)		A (A = MIC values ≤ 1)	A (A = MIC values ≤ 1)	A (A = MIC values ≤ 1)
CC(C)c1cccc2c(-c3cc(Cl)cc(Cl)c3)c(C(=O)O)[nH]c12 [Prior Art Compound 76, reference compound]	> 10 nM	< 150 min	> 10 nM	1 to 10 nM	< 150 min	< 0.005	0.1 to 1 nM	A (A = >100 mg/kg)	< 0.005			
